Measurements taken from ChEMBL document CHEMBL1201862, “PubChem BioAssay data set” (2004).
Active and inactive are the calls of the source. Cut-off read from the data, not from the text of the source, for most assays here: actives have a measured EC50 and inactives only a lower limit.

System: not listed separately
Assay: NIH-3T3 fibroblast cytotoxicity, dose response, cytotoxicity control, cell-based, fluorescence, Alamar Blue, secondary assay (AID 2327);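 note: NIH-3T3 mouse fibroblasts cultured with fluconazole at 8 µg/mL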
Format: functional
Conditions: not given

Row | SMILES | EC50
1 | Cc1cc(C(=O)Nc2ccccc2C(=O)O)ccc1NC(=O)COc1cccc([N+](=O)[O-])c1 | 22.8 µM (inconclusive)
2 | CC(=O)N1CCN(c2ccc(NC(=O)c3ccc(C(C)(C)C)cc3)cc2)CC1 | > 160 µM (inactive)
3 | COc1ccccc1-n1c(C)cc(SC)c(C(C)=O)c1=S | > 150 µM (inactive)
4 | CC(C)n1c(N2CCN(C(=O)Nc3ccc(Cl)cc3)CC2)nc2ccccc21 | 140 µM (active)
5 | COc1cc2nc(SCc3ccc(Cl)cc3Cl)n(Cc3cccs3)c(=N)c2cc1OC | > 160 µM (inactive)

System: not listed separately
Assay: HEp-2 cell cytotoxicity, dose response, cytotoxicity control for RSV inhibitor project, HTS (AID 2410)
Format: functional
Conditions: human respiratory syncytial virus

Row | SMILES | CC50
6 | Cc1cccc(-n2c(SCc3cc(=O)n4ccsc4n3)nc3ccccc3c2=O)c1 | 39.5 µM (active)

System: not listed separately
Assay: inhibitors of firefly luciferase expression or activity, dose response, H4 neuroglioma cells, luminescence (AID 1990)
Format: functional, cell-based
Conditions: not given

Row | SMILES | EC50
7 | O=S(=O)(NCCc1csc(-c2cccnc2)n1)c1ccc2c(c1)OCCO2 | > 120 µM (not active)

System: not listed separately
Assay: Luminescence Cell-Based Dose Response HTS to Identify Inhibitors of 5'UTR Stem-Loop Driven Prion Protein mRNA Translation in H4 Neuroglioblastoma Cells. [Related pubchem assays: 1827 (Project Summary), 1813 (Primary HTS)]
Format: functional
Conditions: not given

Row | SMILES | EC50
8 | O=S(=O)(NCCc1csc(-c2cccnc2)n1)c1ccc2c(c1)OCCO2 | 16.4 µM (active)

System: not listed separately
Assay: inhibitors of SNCA 5'UTR-driven reporter translation, confirmation, H4 neuroglioma cells, luminescence (AID 1988)
Format: functional, cell-based
Conditions: not given

Row | SMILES | EC50
9 | O=S(=O)(NCCc1csc(-c2cccnc2)n1)c1ccc2c(c1)OCCO2 | > 120 µM (not active)

System: not listed separately
Assay: C. albicans growth with fluconazole, confirmation, fluorescence, retest (AID 2467)
Format: functional, cell-based
Conditions: not given

Row | SMILES | EC50
10 | Cc1cc(C(=O)Nc2ccccc2C(=O)O)ccc1NC(=O)COc1cccc([N+](=O)[O-])c1 | 3.79 µM (active)
11 | CC(=O)N1CCN(c2ccc(NC(=O)c3ccc(C(C)(C)C)cc3)cc2)CC1 | 7.14 µM (active)
12 | COc1ccccc1-n1c(C)cc(SC)c(C(C)=O)c1=S | 14 µM (active)
13 | CC(C)n1c(N2CCN(C(=O)Nc3ccc(Cl)cc3)CC2)nc2ccccc21 | > 38 µM (not active)
14 | COc1cc2nc(SCc3ccc(Cl)cc3Cl)n(Cc3cccs3)c(=N)c2cc1OC | > 38 µM (not active)

Molecular target: Luciferin 4-monooxygenase (Photinus pyralis, UniProt P08659)
Assay: firefly luciferase enzyme inhibitors, dose response, biochemical, luminescence (AID 1891)
Conditions: not given

Chain of Luciferin 4-monooxygenase (P08659 whole entry): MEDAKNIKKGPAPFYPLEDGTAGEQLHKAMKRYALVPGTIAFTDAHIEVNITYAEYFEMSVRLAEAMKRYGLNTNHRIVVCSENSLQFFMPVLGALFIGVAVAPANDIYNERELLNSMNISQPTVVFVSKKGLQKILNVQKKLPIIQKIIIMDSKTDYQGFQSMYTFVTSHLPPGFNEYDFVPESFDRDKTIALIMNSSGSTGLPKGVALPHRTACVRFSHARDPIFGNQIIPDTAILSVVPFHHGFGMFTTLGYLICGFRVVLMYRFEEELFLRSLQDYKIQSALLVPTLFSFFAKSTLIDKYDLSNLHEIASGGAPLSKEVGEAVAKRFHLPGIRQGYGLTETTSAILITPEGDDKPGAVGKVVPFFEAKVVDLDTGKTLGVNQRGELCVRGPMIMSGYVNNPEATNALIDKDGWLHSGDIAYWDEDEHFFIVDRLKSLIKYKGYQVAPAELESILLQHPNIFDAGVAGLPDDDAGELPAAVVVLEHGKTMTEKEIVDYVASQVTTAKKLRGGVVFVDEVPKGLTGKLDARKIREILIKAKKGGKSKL

Row | SMILES | EC50
15 | COc1ccc(NC(=O)c2cc(S(=O)(=O)N3CCc4ccccc43)cn2C)cc1 | > 112 µM (not active)
16 | CCCCN(C(=O)C1CC(=O)N(c2ccc(OC)cc2OC)C1)c1c(N)n(CC(C)C)c(=O)[nH]c1=O (stereo not given) | > 112 µM (not active)
17 | CSCCC1NC(=O)N(CC(=O)Nc2ccc(Br)cc2Br)C1=O (stereo not given) | > 112 µM (not active)
18 | O=c1c2ccccc2nc(/C=C/c2ccc(F)cc2)n1-c1ccccn1 | > 112 µM (not active)
19 | Cc1onc(-c2c(Cl)cccc2Cl)c1C(=O)N1CCc2ccccc2C1 | > 112 µM (not active)
20 | CCCc1nc2sc3c(O)ncnc3c2c2c1CCCC2 | > 112 µM (not active)
21 | O=C(NCc1ccncc1)/C(=C/c1cccc([N+](=O)[O-])c1)NC(=O)c1ccccc1 | > 112 µM (not active)
22 | Cc1ccc(NC(=O)Nc2cccc(Cl)c2)c(C(=O)O)c1 | 17.2 µM (active)
23 | O=S(=O)(NCCc1csc(-c2cccnc2)n1)c1ccc2c(c1)OCCO2 | > 112 µM (not active)
24 | Cc1nc2sccn2c(=O)c1S(=O)(=O)N1CCN(c2ccc(F)cc2)CC1 | > 112 µM (not active)
25 | Cc1nc2ccccc2n1/C(=N/S(=O)(=O)c1ccc(Br)cc1)c1ccccc1 | > 112 µM (not active)

System: not listed separately
Assay: Luminescence Cell-Based Dose Confirmation HTS to Identify Inhibitors of Platelet Dense Granule Release. [Related pubchem assays: 1663 (Primary HTS), 1678 (Summary of Project)]
Format: functional
Conditions: not given

Row | SMILES | EC50
26 | COc1ccc(NC(=O)c2cc(S(=O)(=O)N3CCc4ccccc43)cn2C)cc1 | > 112 µM (not active)
27 | CCCCN(C(=O)C1CC(=O)N(c2ccc(OC)cc2OC)C1)c1c(N)n(CC(C)C)c(=O)[nH]c1=O (stereo not given) | 17.5 µM (active)
28 | CSCCC1NC(=O)N(CC(=O)Nc2ccc(Br)cc2Br)C1=O (stereo not given) | > 112 µM (not active)
29 | O=c1c2ccccc2nc(/C=C/c2ccc(F)cc2)n1-c1ccccn1 | > 112 µM (not active)
30 | Cc1onc(-c2c(Cl)cccc2Cl)c1C(=O)N1CCc2ccccc2C1 | > 112 µM (not active)
31 | CCCc1nc2sc3c(O)ncnc3c2c2c1CCCC2 | > 112 µM (not active)
32 | O=C(NCc1ccncc1)/C(=C/c1cccc([N+](=O)[O-])c1)NC(=O)c1ccccc1 | > 112 µM (not active)
33 | Cc1ccc(NC(=O)Nc2cccc(Cl)c2)c(C(=O)O)c1 | > 112 µM (not active)
34 | O=S(=O)(NCCc1csc(-c2cccnc2)n1)c1ccc2c(c1)OCCO2 | > 112 µM (not active)
35 | Cc1nc2sccn2c(=O)c1S(=O)(=O)N1CCN(c2ccc(F)cc2)CC1 | > 112 µM (not active)
36 | Cc1nc2ccccc2n1/C(=N/S(=O)(=O)c1ccc(Br)cc1)c1ccccc1 | > 112 µM (not active)

System: not listed separately
Assay: inhibitors of intracellular T. cruzi replication, confirmation, NIH3T3 host cells, beta-gal luminescence (AID 2044);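 note: intracellular parasites grown in NIH/3T3 mouse fibroblasts as host cells; luminescent beta-galactosidase reporter signal from transgenic T. cruzi replicating inside host cells; inhibitors lower the luminescence signal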
Format: functional, cell-based
Conditions: not given

Row | SMILES | EC50
37 | COc1cc2nc(SCc3ccc(Cl)cc3Cl)n(Cc3cccs3)c(=N)c2cc1OC | 2.09 µM (active)

System: not listed separately
Assay: cytotoxicity toward NIH3T3 fibroblasts, dose response, counter-screen, cell-based, ATP luminescence, mouse fibroblasts (AID 2010);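 note: cells exposed to compound for about 90 hours before reading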
Format: functional
Conditions: not given

Row | SMILES | EC50
38 | COc1cc2nc(SCc3ccc(Cl)cc3Cl)n(Cc3cccs3)c(=N)c2cc1OC | > 60 µM (inconclusive)

Molecular target: T1, Heat shock factor protein 1 (Mus musculus, UniProt P38532)
T1 sequence (P38532 whole entry): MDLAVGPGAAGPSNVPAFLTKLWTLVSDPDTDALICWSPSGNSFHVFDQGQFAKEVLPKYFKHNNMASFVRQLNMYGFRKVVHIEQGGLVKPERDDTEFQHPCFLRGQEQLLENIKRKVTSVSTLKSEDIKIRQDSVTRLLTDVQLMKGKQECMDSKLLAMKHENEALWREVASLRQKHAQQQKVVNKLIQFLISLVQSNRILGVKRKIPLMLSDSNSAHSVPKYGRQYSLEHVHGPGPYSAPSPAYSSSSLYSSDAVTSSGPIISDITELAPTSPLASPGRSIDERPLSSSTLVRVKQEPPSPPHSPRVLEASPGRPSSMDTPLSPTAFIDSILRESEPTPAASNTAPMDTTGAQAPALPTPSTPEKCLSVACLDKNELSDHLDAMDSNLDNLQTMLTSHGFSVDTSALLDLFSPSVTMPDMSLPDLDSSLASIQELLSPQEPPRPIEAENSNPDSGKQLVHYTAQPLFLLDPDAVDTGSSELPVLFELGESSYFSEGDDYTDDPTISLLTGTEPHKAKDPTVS
Assay: HSF1 potentiators in luciferase reporter cells, confirmation, cell-based, NIH3T3, luminescence, dose retest (AID 435004);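 note: stress induced by proteasome inhibitor MG132 added 30 min after compound; luciferase reporter driven by HSF1 response element in NIH3T3 cells; actives raise luminescence as potentiators of the MG132 stress response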
Format: functional
Conditions: not given

Row | SMILES | EC50
39 | CSc1cc(-c2ccco2)oc1C(=O)c1ccco1 | > 260 µM (inactive)

System: H9c2;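 note: confirmatory concentration-response retest of ultra-high-throughput screening hits for modulation of myocardial damage; cell death induced by hydrogen peroxide oxidative stress; compound pretreatment for 60 min then peroxide exposure for 2 h; potency is for protecting the cells against peroxide damage rather than for killing them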
Assay: cells
Format: functional, cell-based
Conditions: Rattus norvegicus, H9c2, Myocardium

Row | SMILES | IC50
40 | Cc1sc2nc(CSCC(=O)N(C)c3ccccc3)nc(O)c2c1C | > 79 µM (inactive)
41 | CCOC(=O)C1=C(NC(=O)c2ccc(S(=O)(=O)N(C)C)cc2)Nc2ccccc2N=C1CC | > 79 µM (inactive)
42 | Cn1c(=O)c2c(nc(NCc3cccnc3)n2Cc2cccc(C(F)(F)F)c2)n(C)c1=O | 14 µM (active)
43 | Cc1cccc(-n2c(SCc3cc(=O)n4ccsc4n3)nc3ccccc3c2=O)c1 | > 79 µM (inactive)

Molecular target: T2, Protein skinhead-1 (Caenorhabditis elegans, UniProt P34707)
T2 sequence (P34707 whole entry): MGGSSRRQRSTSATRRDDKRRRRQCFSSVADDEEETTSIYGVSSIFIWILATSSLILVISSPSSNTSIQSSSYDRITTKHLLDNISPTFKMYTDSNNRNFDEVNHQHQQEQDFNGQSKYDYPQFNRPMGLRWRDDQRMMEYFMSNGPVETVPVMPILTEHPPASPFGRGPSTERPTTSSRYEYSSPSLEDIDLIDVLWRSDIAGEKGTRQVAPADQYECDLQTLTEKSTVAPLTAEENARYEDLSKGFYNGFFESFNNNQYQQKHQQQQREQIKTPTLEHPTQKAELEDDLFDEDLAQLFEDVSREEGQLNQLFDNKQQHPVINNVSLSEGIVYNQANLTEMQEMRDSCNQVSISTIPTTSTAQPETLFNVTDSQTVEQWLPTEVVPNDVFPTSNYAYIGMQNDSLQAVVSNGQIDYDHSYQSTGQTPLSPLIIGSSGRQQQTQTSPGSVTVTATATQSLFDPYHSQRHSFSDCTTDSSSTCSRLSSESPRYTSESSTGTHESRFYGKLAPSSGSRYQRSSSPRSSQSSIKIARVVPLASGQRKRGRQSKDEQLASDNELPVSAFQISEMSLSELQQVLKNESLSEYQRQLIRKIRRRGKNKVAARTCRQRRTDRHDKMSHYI
Assay: not given
Format: functional
Conditions: not given

Row | SMILES | IC50
44 | CSc1cc(-c2ccco2)oc1C(=O)c1ccco1 | > 100 µM (inactive)

Molecular target: Cytochrome P450 2D6 (Homo sapiens, UniProt P10635);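 note: CYP2D6 member of a cytochrome P450 panel assay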
Assay: not given
Conditions: not given

Chain of Cytochrome P450 2D6 (P10635 whole entry): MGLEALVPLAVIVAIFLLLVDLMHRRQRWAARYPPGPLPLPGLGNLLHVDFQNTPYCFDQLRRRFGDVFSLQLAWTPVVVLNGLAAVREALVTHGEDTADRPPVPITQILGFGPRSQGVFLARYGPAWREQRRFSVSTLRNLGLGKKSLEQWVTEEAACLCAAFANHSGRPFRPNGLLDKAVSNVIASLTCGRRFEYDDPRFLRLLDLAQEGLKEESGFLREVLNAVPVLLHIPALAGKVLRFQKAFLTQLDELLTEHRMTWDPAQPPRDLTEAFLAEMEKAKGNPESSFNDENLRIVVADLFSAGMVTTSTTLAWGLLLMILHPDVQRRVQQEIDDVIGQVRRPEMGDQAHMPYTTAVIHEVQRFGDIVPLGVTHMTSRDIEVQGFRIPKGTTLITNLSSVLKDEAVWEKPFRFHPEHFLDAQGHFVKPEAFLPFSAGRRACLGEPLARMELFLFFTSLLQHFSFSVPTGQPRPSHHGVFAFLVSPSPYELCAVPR

Row | SMILES | AC50
45 | Cc1onc(-c2c(Cl)cccc2Cl)c1C(=O)N1CCc2ccccc2C1 | 22.4 µM (inconclusive)
